From publication PMC6560083, “A mechanism to prevent production of reactive oxygen species by Escherichia coli respiratory complex I” (Nature Communications, 2019) come the findings set out here.

Data set [1] concerns the target T1, NuoEF of Aquifex aeolicus complex I (Aquifex aeolicus, UniProt O66841).
T1 construct: gene nuoF; electron input subcomplex, NuoE (18 kDa) and NuoF (44 kDa) heterodimer, C-terminal hexahistidine tag on NuoF, expressed in E. coli; with NADH-quinone oxidoreductase subunit E
In words: X-ray crystal structure, soaked crystals. The data set is classed as binding. The following applies: oxidized; ADP moiety defined, nicotinamide ring and its ribose not seen.

Data set [2] concerns the target T1, NuoEF of Aquifex aeolicus complex I. The experiment in a line: X-ray crystal structure, soaked crystals. In kind it is binding. The following applies: oxidized.
Data set [3] concerns the target T2, NuoEF of Aquifex aeolicus complex I (Aquifex aeolicus, UniProt O66841, S96M).
T2 construct: gene nuoF; electron input subcomplex, NuoE (18 kDa) and NuoF (44 kDa) heterodimer, C-terminal hexahistidine tag on NuoF, expressed in E. coli; with NADH-quinone oxidoreductase subunit E
In words: X-ray crystal structure, soaked crystals. In kind it is binding.

Data set [4] has as its target T3, NuoEF of Aquifex aeolicus complex I (Aquifex aeolicus, UniProt O66841).
T3 construct: gene nuoF; electron input subcomplex, NuoE (18 kDa) and NuoF (44 kDa) heterodimer, C-terminal hexahistidine tag on NuoF, expressed in E. coli; with NADH-quinone oxidoreductase subunit E
T3 sequence (O66841 1-426): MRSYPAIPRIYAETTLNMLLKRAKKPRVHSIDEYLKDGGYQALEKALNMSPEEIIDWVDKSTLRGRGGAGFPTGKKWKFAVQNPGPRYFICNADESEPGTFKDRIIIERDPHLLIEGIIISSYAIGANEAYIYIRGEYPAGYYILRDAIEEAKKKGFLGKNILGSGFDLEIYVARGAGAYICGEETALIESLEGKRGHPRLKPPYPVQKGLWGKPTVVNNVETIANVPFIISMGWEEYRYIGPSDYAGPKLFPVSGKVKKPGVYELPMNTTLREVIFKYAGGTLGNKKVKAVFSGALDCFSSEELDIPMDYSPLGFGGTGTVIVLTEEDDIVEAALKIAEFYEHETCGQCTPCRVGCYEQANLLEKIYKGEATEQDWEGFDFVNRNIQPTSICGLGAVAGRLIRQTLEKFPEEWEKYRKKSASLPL
T3 sequence (O66842 1-160 partner): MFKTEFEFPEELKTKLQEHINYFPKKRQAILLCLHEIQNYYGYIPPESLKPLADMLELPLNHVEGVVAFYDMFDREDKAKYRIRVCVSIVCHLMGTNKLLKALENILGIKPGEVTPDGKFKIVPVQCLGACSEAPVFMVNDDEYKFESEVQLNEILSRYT
In words: X-ray crystal structure, soaked crystals. The data set is classed as binding.

In data set [5] the target is T3, NuoEF of Aquifex aeolicus complex I. In words: X-ray crystal structure. In kind it is binding. The following applies: bound cofactor of NuoF, oxidized (6HL2) and dithionite-reduced (6HL4).
Substrate in the data set “purified protein”: NC(=O)C1=CN([C@@H]2O[C@H](COP(=O)(O)OP(=O)(O)OC[C@H]3O[C@@H](n4cnc5c(N)ncnc54)[C@H](O)[C@@H]3O)[C@@H](O)[C@H]2O)C=CC1
The experiment in a line: purified protein. The data set is classed as biochemical, Escherichia coli. The following applies: 50 mM MES/NaOH, 50 mM NaCl, pH 6.0, electron acceptor of the Km titration not clearly stated (decyl-ubiquinone or ferricyanide).

Data set [6] deals with T4, Aquifex aeolicus NuoF variant S96M (Aquifex aeolicus, UniProt O66841 1-426, S96M^F).
T4 construct: NuoF of Aquifex aeolicus complex I with S96 exchanged for methionine (the residue at the homologous position of E. coli NuoF); The His tag is told for the original NuoF; the variants were purified in the same way (Ni2+-IDA); also called S96M^F; NuoEF S96M^F; source: overproducing E. coli strain, purified together with NuoE (Source 15Q anion exchange, Ni2+-IDA, size exclusion)
T4 sequence (looked up): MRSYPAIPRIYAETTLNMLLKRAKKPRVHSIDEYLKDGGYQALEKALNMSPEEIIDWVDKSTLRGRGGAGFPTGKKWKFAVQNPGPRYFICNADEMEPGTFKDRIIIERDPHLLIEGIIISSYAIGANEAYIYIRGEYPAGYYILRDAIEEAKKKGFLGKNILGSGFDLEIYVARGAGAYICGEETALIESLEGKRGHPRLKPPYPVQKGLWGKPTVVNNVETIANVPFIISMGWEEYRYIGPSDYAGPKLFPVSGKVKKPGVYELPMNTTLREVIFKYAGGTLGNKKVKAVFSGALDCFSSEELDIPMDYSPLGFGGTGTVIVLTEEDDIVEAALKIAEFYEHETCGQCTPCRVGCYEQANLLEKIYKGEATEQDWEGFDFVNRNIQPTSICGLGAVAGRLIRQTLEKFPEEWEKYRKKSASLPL
In words: crystal structure; NuoEF subcomplex crystallized at 20 °C by sitting drop vapor diffusion, 0.1 M Tris/HCl, 1.0 M sodium citrate, pH 6.9-7.1; air-oxidized, dithionite- or NADH-reduced, with and without soaked NAD+ or NADH. The following applies: both partners purified.

The target in data set [7] is T5, Aquifex aeolicus complex I subunit NuoF (Aquifex aeolicus, UniProt O66841 1-426).
T5 construct: NuoF, subunit of the NADH:ubiquinone oxidoreductase (complex I) of Aquifex aeolicus; 44 kDa; the model contains 418 amino acids, eight residues at the C-terminus and the following hexahistidine tag not defined; Co-produced and co-purified with NuoE as the subcomplex NuoEF; also called original NuoEF (subunit F); source: overproducing E. coli strain, purified together with NuoE (Source 15Q anion …)
T5 sequence (looked up): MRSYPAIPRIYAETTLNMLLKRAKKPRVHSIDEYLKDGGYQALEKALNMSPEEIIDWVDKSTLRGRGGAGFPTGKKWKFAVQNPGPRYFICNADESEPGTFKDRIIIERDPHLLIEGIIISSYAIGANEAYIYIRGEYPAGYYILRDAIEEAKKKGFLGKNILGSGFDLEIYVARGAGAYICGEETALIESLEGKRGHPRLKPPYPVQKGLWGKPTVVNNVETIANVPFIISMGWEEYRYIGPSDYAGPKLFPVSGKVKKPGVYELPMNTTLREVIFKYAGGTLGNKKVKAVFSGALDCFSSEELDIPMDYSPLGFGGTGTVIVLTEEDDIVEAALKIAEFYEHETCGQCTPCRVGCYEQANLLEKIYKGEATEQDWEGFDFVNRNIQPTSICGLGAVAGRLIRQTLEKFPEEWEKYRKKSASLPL
Described as above. The following applies: both partners purified.

Turning to `NC(=O)c1ccc[n+]([C@@H]2O[C@H](COP(=O)(O)OP(=O)(O)OC[C@H]3O[C@@H](n4cnc5c(N)ncnc54)[C@H](O)[C@@H]3O)[C@@H](O)[C@H]2O)c1` [NAD^+], the “X-ray crystal structure, soaked crystals” value was “the oxidized G129D^E variant was soaked with NAD^+” in data set [1]; 6HLJ (variant G129S, oxidized with NAD^+) in data set [2]; 6R7P (variant S96M, oxidized with NAD^+) in data set [3] (oxidized, 3.22 Å); “crystals of NuoEF were soaked with NAD^+, with NADH and with NADH plus dithionite” in data set [4] (oxidized state, 10 mM NAD+ soak, 2.0 Å, loose position, 6HLI: dithionite-reduced, near tight position). As to `Cc1cc2nc3c(=O)[nH]c(=O)nc-3n(C[C@H](O)[C@H](O)[C@H](O)COP(=O)(O)O)c2cc1C` [FMN], the X-ray crystal structure entry in data set [5] is “Subunit NuoF binds the FMN cofactor as well as cluster N3”.

`NC(=O)C1=CN([C@@H]2O[C@H](COP(=O)(O)OP(=O)(O)OC[C@H]3O[C@@H](n4cnc5c(N)ncnc54)[C@H](O)[C@@H]3O)[C@@H](O)[C@H]2O)C=CC1` [NADH]: the “X-ray crystal structure, soaked crystals” value in data set [3] (reduced) is 6Q9K (variant S96M, reduced with NADH); in data set [4] (NADH soak, reduced state, 1.8-1.9 Å, nicotinamide in tight position, 6HLA with dithionite plus NADH), “crystals of NuoEF were soaked with NAD^+, with NADH and with NADH plus dithionite”.

B1: E. coli complex I (Escherichia coli K-12) (protein)
chain: MKNIIRTPETHPLTWRLRDDKQPVWLDEYRSKNGYEGARKALTGLSPDEIVNQVKDAGLKGRGGAGFSTGLKWSLMPKDESMNIRYLLCNADEMEPGTYKDRLLMEQLPHLLVEGMLISAFALKAYRGYIFLRGEYIEAAVNLRRAIAEATEAGLLGKNIMGTGFDFELFVHTGAGRYICGEETALINSLEGRRANPRSKPPFPATSGAWGKPTCVNNVETLCNVPAILANGVEWYQNISKSKDAGTKLMGFSGRVKNPGLWELPFGTTAREILEDYAGGMRDGLKFKAWQPGGAGTDFLTEAHLDLPMEFESIGKAGSRLGTALAMAVDHEINMVSLVRNLEEFFARESCGWCTPCRDGLPWSVKILRALERGEGQPGDIETLEQLCRFLGPGKTFCAHAPGAVEPLQSAIKYFREEFEAGIKQPFSNTHLINGIQPNLLKERW
notes: with NADH-quinone oxidoreductase subunit E; NADH-quinone oxidoreductase subunit G; NADH-quinone oxidoreductase subunit B; NADH-quinone oxidoreductase subunit C/D; NADH-quinone oxidoreductase subunit I; NADH-quinone oxidoreductase subunit A; NADH-quinone oxidoreductase subunit H; NADH-quinone oxidoreductase subunit J; NADH-quinone oxidoreductase subunit K; NADH-quinone oxidoreductase subunit L; …
By Km is commonly meant the concentration of substrate that gives half-maximal velocity. For B1, in “purified protein”, the Km was 13 ± 1 µM.

B2: Aquifex aeolicus complex I subunit NuoE (natural protein)
chain: MFKTEFEFPEELKTKLQEHINYFPKKRQAILLCLHEIQNYYGYIPPESLKPLADMLELPLNHVEGVVAFYDMFDREDKAKYRIRVCVSIVCHLMGTNKLLKALENILGIKPGEVTPDGKFKIVPVQCLGACSEAPVFMVNDDEYKFESEVQLNEILSRYT
notes: NuoE, subunit of the NADH:ubiquinone oxidoreductase (complex I) of Aquifex aeolicus; 18 kDa; the model comprises 154 amino acids, the first six N-terminal residues not defined (residues up to 160); holds the [2Fe-2S] cluster N1a; Co-produced and co-purified with His-tagged NuoF as the subcomplex NuoEF; also called original NuoEF (subunit E); source: overproducing E. coli strain, purified together …
On to B2, for which the binding result in data set [6] and in data set [7] was “binds” each time.

B3: Aquifex aeolicus NuoE variant G129S (natural protein)
chain: MFKTEFEFPEELKTKLQEHINYFPKKRQAILLCLHEIQNYYGYIPPESLKPLADMLELPLNHVEGVVAFYDMFDREDKAKYRIRVCVSIVCHLMGTNKLLKALENILGIKPGEVTPDGKFKIVPVQCLSACSEAPVFMVNDDEYKFESEVQLNEILSRYT
notes: NuoE of Aquifex aeolicus complex I with G129 exchanged for serine; also called G129S^E; Ser-variant of NuoEF; source: E. coli, purified together with NuoF (Source 15Q anion exchange, Ni2+-IDA, size exclusion)
Turning to B3, the binding result in data set [7] is “binds”.

B4: Aquifex aeolicus NuoE variant G129D (natural protein)
chain: MFKTEFEFPEELKTKLQEHINYFPKKRQAILLCLHEIQNYYGYIPPESLKPLADMLELPLNHVEGVVAFYDMFDREDKAKYRIRVCVSIVCHLMGTNKLLKALENILGIKPGEVTPDGKFKIVPVQCLDACSEAPVFMVNDDEYKFESEVQLNEILSRYT
notes: NuoE of Aquifex aeolicus complex I with G129 exchanged for aspartate; also called G129D^E; Asp-variant of NuoEF; source: E. coli, purified together with NuoF (Source 15Q anion exchange, Ni2+-IDA, size exclusion)
For B4, the binding result in data set [7] is given as “binds”.
